Source: ChEMBL document CHEMBL5247651, “Oxadiazolopyridine Derivatives as Efficacious Mitochondrial Uncouplers in the Prevention of Diet-Induced Obesity” (J Med Chem, 2023)
The source made the active and inactive calls. No cut-off for these calls is given here.

Assays:
[1] = Induction of mitochondrial uncoupling activity in rat L6 cells assessed as increase in oxygen consumption rate measured after 90 mins by agilent Seahorse XF analyzer; assay type: functional, cell-based
[2] = (§1) Induction of mitochondrial uncoupling activity in rat L6 cells assessed as increase in oxygen consumption rate at 0.37 to 200 uM measured after 90 mins by agilent Seahorse XF analyzer relative to BAM15; assay type: functional; conditions: dose 0.37-200 µM, 1.5 h
L6 [3] = conditions: Rattus norvegicus, time 90.0 min
L6 [4] = assay: as §1; assay type: functional; conditions: dose 0.37-200 µM
[5] = Half life in C57BL/6 mouse at 10 mg/kg, po administered via gavage measured upto 24 hrs by LC/MS-MS analysis; assay type: ADME, organism-based; conditions: in vivo
[6] = Cmax in C57BL/6 mouse at 10 mg/kg, po administered via gavage measured upto 24 hrs by LC/MS-MS analysis; assay type: ADME, organism-based; parameters: dose 10 mg/kg, time < 24 hrs, route po; conditions: in vivo
Mus musculus [7] = assay: Anti-obesity activity against HFD-induced C57BL/6 mouse model assessed as reduction in body fat mass at 5 mg/kg, po via gavage administered 3 times a week measured after 6 weeks; assay type: functional; parameters: scale not given: the % may be the effect or the level left
Mus musculus [8] = assay: Anti-obesity activity against HFD-induced C57BL/6J mouse model assessed as reduction in diet-induced weight gain at 125 mg/kg/day measured after 8 weeks; assay type: functional; parameters: scale not given: the % may be the effect or the level left

| Compound | pEC50 [1] | Activity [2] [%] | other results |
| --- | --- | --- | --- |
| Oc1nc2nonc2cc1Nc1ccc(C(F)(F)F)cc1C(F)(F)F | 6 | 34 | – |
| Oc1nc2nonc2cc1Nc1ccc(OC(F)(F)C(F)F)cc1 | – | – | pEC50 (L6 [3]): inactive; Activity (L6 [4]): inactive |
| Oc1nc2nonc2cc1Nc1cc(C(F)(F)F)c(F)cc1F | 5.5 | 51 | t1/2 [5]: 1.3 h; Cmax [6]: 25 µM; EC50 [1]: 1.4 µM |
| Oc1nc2nonc2cc1Nc1c(F)cccc1F | – | 6 | pEC50 (L6 [3]): inactive |
| Oc1nc2nonc2cc1Nc1ccc(C(F)(F)F)cc1 | – | 28 | EC50 [1]: 6.9 µM |
| Oc1nc2nonc2cc1Nc1cc(F)c(C(F)(F)F)cc1F | 6.1 | 26 | – |
| Oc1nc2nonc2cc1Nc1cc(OC(F)(F)F)c(F)cc1F | 5.7 | 58 | – |
| CC(C)(C)c1ccccc1Nc1cc2nonc2nc1O | – | – | pEC50 (L6 [3]): inactive; Activity (L6 [4]): inactive |
| Oc1nc2nonc2cc1Nc1ccc(OC(F)(F)F)cc1C(F)(F)F | 5.5 | 57 | t1/2 [5]: > 24 h; Cmax [6]: 10 µM; EC50 [1]: 3.1 µM |
| Oc1nc2nonc2cc1Nc1ccc(F)cc1 | – | 6 | pEC50 (L6 [3]): inactive |
| CS(=O)(=O)c1ccc(Nc2cc3nonc3nc2O)cc1 | – | – | pEC50 (L6 [3]): inactive; Activity (L6 [4]): inactive |
| O=C(Nc1cc(Cl)cc(Cl)c1)Nc1cc(Cl)cc(Cl)c1 | – | – | Activity (Mus musculus [7]): 35% |
| Oc1nc2nonc2cc1Nc1cc(C(F)(F)F)ccc1C(F)(F)F | 5.7 | 72 | t1/2 [5]: 2.2 h; Cmax [6]: 29 µM; EC50 [1]: 1.5 µM |
| Oc1nc2nonc2cc1Nc1cccc(C(F)(F)F)c1F | – | 3 | pEC50 (L6 [3]): inactive |
| Oc1nc2nonc2cc1Nc1ccc(C(F)(F)F)cc1F | – | 9 | pEC50 (L6 [3]): inactive |
| Oc1nc2nonc2cc1Nc1cc(F)cc(OC(F)(F)F)c1 | – | 6 | pEC50 (L6 [3]): inactive |
| Oc1nc2nonc2cc1Nc1c(F)c(F)c(C(F)(F)F)c(F)c1F | 5.9 | 69 | t1/2 [5]: 15.6 h; Cmax [6]: 21 µM; EC50 [1]: 2 µM |
| Oc1nc2nonc2cc1Nc1ccc(F)cc1F | – | – | pEC50 (L6 [3]): inactive; Activity (L6 [4]): inactive |
| O=C(Nc1ccc([N+](=O)[O-])cc1Cl)c1cc(Cl)ccc1O [NICLOSAMIDE] | – | – | Activity (Mus musculus [8]): 25% |
| Oc1nc2nonc2cc1Nc1cccc(F)c1F | – | 3 | pEC50 (L6 [3]): inactive |
| Oc1nc2nonc2cc1Nc1c(F)cc(F)cc1F | 4.4 | 14 | – |
| Oc1nc2nonc2cc1Nc1ccc(S(F)(F)(F)(F)F)cc1 | 6.2 | 4 | – |
| Oc1nc2nonc2cc1Nc1ccccc1OC(F)(F)F | – | – | pEC50 (L6 [3]): inactive; Activity (L6 [4]): inactive |
| COc1ccc(Nc2cc3nonc3nc2O)cc1 | – | – | pEC50 (L6 [3]): inactive; Activity (L6 [4]): inactive |
| Oc1nc2nonc2cc1Nc1ccc(F)c(F)c1F | – | 2 | pEC50 (L6 [3]): inactive |
| Oc1nc2nonc2cc1Nc1cccc(F)c1 | – | 3 | pEC50 (L6 [3]): inactive |
| Oc1nc2nonc2cc1Nc1cc(C(F)(F)F)cc(C(F)(F)F)c1 | 5.8 | 35 | – |
| Oc1nc2nonc2cc1Nc1ccccc1F | – | – | pEC50 (L6 [3]): inactive |
| Cc1ccc(Nc2cc3nonc3nc2O)cc1 | – | – | pEC50 (L6 [3]): inactive; Activity (L6 [4]): inactive |

Second part, led by results:

| pEC50 [1] | Compound | Activity [2] [%] | other results |
| --- | --- | --- | --- |
| 4.7 | Oc1nc2nonc2cc1Nc1cc(F)ccc1F | 27 | – |
| 5.8 | Oc1nc2nonc2cc1Nc1ccc(OC(F)(F)F)cc1 | 14 | – |
| 5.6 | Oc1nc2nonc2cc1Nc1ccc(OC(F)(F)F)c(F)c1 | 25 | – |
| 6 | Oc1nc2nonc2cc1Nc1ccc(C(F)(F)F)c(C(F)(F)F)c1 | 10 | – |
| 5.3 | Oc1nc2nonc2cc1Nc1cccc(OC(F)(F)F)c1 | 17 | – |
| 5.7 | Oc1nc2nonc2cc1Nc1ccc(F)cc1OC(F)(F)F | 14 | – |
| 5.3 | Oc1nc2nonc2cc1Nc1cccc(F)c1C(F)(F)F | 26 | – |
| 5.1 | Oc1nc2nonc2cc1Nc1cc(F)ccc1C(F)(F)F | 53 | EC50 [1]: 7.8 µM |
| 5.9 | Oc1nc2nonc2cc1Nc1cc(F)ccc1OC(F)(F)F | 13 | – |
| > 4 | O=S(=O)(c1cccc(Nc2cc3nonc3nc2O)c1)C(F)(F)F | 13 | – |
| 4.7 | Oc1nc2nonc2cc1Nc1ccc(C(F)(F)F)nc1 | 26 | EC50 [1]: 20 µM |
| 4.2 | Oc1nc2nonc2cc1Nc1ccc(F)c(F)c1 | 17 | – |
| 5.6 | Oc1nc2nonc2cc1Nc1cc(F)c(F)c(F)c1 | 21 | – |
| 5.5 | Oc1nc2nonc2cc1Nc1cc(OC(F)(F)F)ccc1F | 59 | EC50 [1]: 3.4 µM |
| 4.8 | Oc1nc2nonc2cc1Nc1ccccc1C(F)(F)F | 20 | – |
| 5.8 | Oc1nc2nonc2cc1Nc1ccc(OC(F)(F)F)cc1F | 11 | – |
| 6.1 | Oc1nc2nonc2cc1Nc1ccc(C(F)(F)F)c(F)c1 | 10 | – |
| 5.3 | Oc1nc2nonc2cc1Nc1ccc(F)cc1C(F)(F)F | 29 | – |
| 5.8 | Oc1nc2nonc2cc1Nc1cccc(C(F)(F)F)c1 | 14 | – |
| 5.9 | Oc1nc2nonc2cc1Nc1cccc(OC(F)(F)F)c1F | 30 | – |
| 6.1 | Oc1nc2nonc2cc1Nc1cc(F)cc(C(F)(F)F)c1 | 11 | – |
| 6 | O=S(=O)(c1ccc(Nc2cc3nonc3nc2O)cc1)C(F)(F)F | 25 | – |
| 4.3 | Oc1nc2nonc2cc1Nc1c(F)cccc1C(F)(F)F | 10 | – |
| 5.9 | Oc1nc2nonc2cc1Nc1cccc(S(F)(F)(F)(F)F)c1 | 20 | – |
| 5.9 | Oc1nc2nonc2cc1Nc1cc(F)c(C(F)(F)F)c(F)c1 | 33 | – |
| 5.7 | Oc1nc2nonc2cc1Nc1cccc(C(F)(F)F)c1C(F)(F)F | 11 | – |
| 4.3 | Oc1nc2nonc2cc1Nc1cc(F)cc(F)c1 | 24 | – |
| 5.4 | Oc1nc2nonc2cc1Nc1cc(C(F)(F)F)ccc1F | 54 | t1/2 [5]: 1 h; Cmax [6]: 46 µM; EC50 [1]: 1.5 µM |
